Patent US20210198277A1, “AMINE-SUBSTITUTED ARYL OR HETEROARYL COMPOUNDS” (Epizyme, Inc., priority 2016, published 2021)

molecular target: T1, EHMT2 (Homo sapiens, UniProt Q96KQ7); assay: MDA-MB-231 H3K9me2 in-cell Western assay (EHMT2 ICW); type: cell-based; settings: Table III; MDA-MB-231 H3K9me2 in-cell Western; read-out: EHMT2 ICW (IC50 μM)
T1 construct: host or cells: MDA-MB-231
T1 sequence (Q96KQ7 1-1210): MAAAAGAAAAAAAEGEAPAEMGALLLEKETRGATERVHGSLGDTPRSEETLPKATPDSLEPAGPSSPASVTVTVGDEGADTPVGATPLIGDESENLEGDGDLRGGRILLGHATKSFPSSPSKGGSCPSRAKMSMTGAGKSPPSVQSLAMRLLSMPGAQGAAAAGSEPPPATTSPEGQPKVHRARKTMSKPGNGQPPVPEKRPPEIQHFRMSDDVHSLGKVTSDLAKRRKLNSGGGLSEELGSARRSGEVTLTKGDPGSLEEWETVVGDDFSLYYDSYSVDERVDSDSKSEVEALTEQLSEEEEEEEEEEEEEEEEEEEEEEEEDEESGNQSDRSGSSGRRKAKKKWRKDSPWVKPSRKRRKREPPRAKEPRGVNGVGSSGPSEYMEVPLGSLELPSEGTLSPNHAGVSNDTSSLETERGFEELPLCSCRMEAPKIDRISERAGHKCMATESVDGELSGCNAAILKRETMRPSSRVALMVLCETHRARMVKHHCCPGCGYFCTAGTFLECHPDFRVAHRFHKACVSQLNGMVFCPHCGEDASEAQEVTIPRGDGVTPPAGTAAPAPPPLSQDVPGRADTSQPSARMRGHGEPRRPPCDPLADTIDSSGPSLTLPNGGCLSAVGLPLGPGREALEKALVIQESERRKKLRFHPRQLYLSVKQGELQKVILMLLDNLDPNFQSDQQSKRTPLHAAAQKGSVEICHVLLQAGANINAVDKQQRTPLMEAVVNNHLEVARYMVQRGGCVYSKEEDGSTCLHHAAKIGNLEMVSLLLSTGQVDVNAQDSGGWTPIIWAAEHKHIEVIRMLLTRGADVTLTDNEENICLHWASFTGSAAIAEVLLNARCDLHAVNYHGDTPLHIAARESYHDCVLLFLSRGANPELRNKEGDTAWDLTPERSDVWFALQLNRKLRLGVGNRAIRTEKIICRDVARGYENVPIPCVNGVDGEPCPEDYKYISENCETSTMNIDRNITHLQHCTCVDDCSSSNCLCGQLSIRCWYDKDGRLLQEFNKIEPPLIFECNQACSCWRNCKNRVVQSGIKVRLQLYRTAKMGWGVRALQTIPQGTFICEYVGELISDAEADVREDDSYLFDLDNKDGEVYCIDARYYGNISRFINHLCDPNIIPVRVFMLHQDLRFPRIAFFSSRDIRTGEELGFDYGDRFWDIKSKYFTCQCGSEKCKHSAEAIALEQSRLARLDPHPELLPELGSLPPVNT
In short: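 Cellular dimethyl-H3K9 is quantified by in-cell Western in MDA-MB-231 cells treated with compound for 48 h. The H3K9me2 signal at 800 nm is normalised to DRAQ5 nuclear stain at 700 nm. IC50 is calculated from triplicate concentration points by nonlinear regression.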

IC50 [µM]	SMILES
> 10	COc1ccc(Nc2cc(C)nc(O)n2)cc1OCCCN1CCCC1 [Compound 448, 4-((4-methoxy-3-(3-(pyrrolidin-1-yl)propoxy)phenyl)amino)-6-methylpyrimidin-2-ol]
0.1 to 1	CNc1cc(C)nc(Nc2ccc(OC)c(OCC3CCN(C4COC4)C3)c2)n1 (centres unmarked) [Compound 449, N^2-(4-methoxy-3-((1-(oxetan-3-yl)pyrrolidin-3-yl)methoxy)phenyl)-N^4,6-dimethylpyrimidine-2,4-diamine]
> 10	CNc1cc(C)nc(Nc2ccc(OC)c(OCC3CCCO3)c2)n1 (centres unmarked) [Compound 452, N^2-(4-methoxy-3-((tetrahydrofuran-2-yl)methoxy)phenyl)-N^4,6-dimethylpyrimidine-2,4-diamine]

Further lines, the compound ahead of its results:

SMILES	IC50 [µM]
CNc1cc(N2CCCC2)nc(Nc2ccc(OC)c(OCCCN3CCCC3)c2)n1 [Compound 450, N^2-(4-methoxy-3-(3-(pyrrolidin-1-yl)propoxy)phenyl)-N^4-methyl-6-(pyrrolidin-1-yl)pyrimidine-2,4-diamine]	> 10
COc1ccc(Nc2nc(C)cc(NCC3CCOCC3)n2)cc1OCC1CCN(C)C1 (centres unmarked) [Compound 451, N^2-(4-methoxy-3-((1-methylpyrrolidin-3-yl)methoxy)phenyl)-6-methyl-N^4-((tetrahydro-2H-pyran-4-yl)methyl)pyrimidine-2,4-diamine]	1 to 10
